Laboratory results: ChEMBL document CHEMBL3045607, “Design and synthesis of novel N-substituted-3-chloro-2-azetidinone derivatives as potential anticonvulsant agents” (Med Chem Res, 2011)
Active and inactive are the calls of the source. No cut-off for these calls is given here.

Experiments:
[1] = test system: Mus musculus; experiment: Neurotoxicity in Mus musculus (mouse) assessed as minimal motor impairment at 300 mg/kg, ip after 0.5 hr by rotarod test; type: toxicity, organism-based; design: dose 300 mg/kg, route intraperitoneal; settings: in vivo
[2] = test system: Mus musculus; experiment: Anticonvulsant activity in Mus musculus (mouse) assessed as protection against subcutaneous pentylene tetrazole-induced seizure at 300 mg/kg, ip after 0.5 hr; type: functional, organism-based; design: dose 300 mg/kg
[3] = test system: Mus musculus; experiment: Neurotoxicity in Mus musculus (mouse) assessed as increase in immobility time at 30 mg/kg, ip administered 30 min before test measured for 5 min by forced swimming test; type: toxicity, organism-based; design: dose 30 mg/kg, route intraperitoneal; settings: in vivo
[4] = test system: Mus musculus; experiment: Anticonvulsant activity in ip dosed Mus musculus (mouse) assessed as protection against maximal electroshock-induced seizure after 0.5 hr; type: functional; settings: read-out: MED
[5] = test system: Mus musculus; experiment: Neurotoxicity in Mus musculus (mouse) assessed as minimal motor impairment at 300 mg/kg, ip after 4 hr by rotarod test; type: toxicity, organism-based; design: dose 300 mg/kg, route intraperitoneal; settings: in vivo
[6] = test system: Mus musculus; experiment: Anticonvulsant activity in ip dosed Mus musculus (mouse) assessed as protection against maximal electroshock-induced seizure after 4 hr; type: functional; settings: read-out: MED
[7] = test system: Mus musculus; experiment: Anticonvulsant activity in ip dosed Mus musculus (mouse) assessed as protection against subcutaneous pentylene tetrazole-induced seizure after 4 hr; type: functional; settings: read-out: MED
[8] = test system: Mus musculus; experiment: Neurotoxicity in ip dosed Mus musculus (mouse) assessed as minimal motor impairment after 0.5 hr by rotarod test; type: toxicity, organism-based; settings: in vivo
[9] = test system: Mus musculus; experiment: Anticonvulsant activity in Mus musculus (mouse) assessed as protection against subcutaneous pentylene tetrazole-induced seizure at 300 mg/kg, ip after 4 hr; type: functional, organism-based; design: dose 300 mg/kg
[10] = test system: Mus musculus; experiment: Neurotoxicity in ip dosed Mus musculus (mouse) assessed as minimal motor impairment after 4 hr by rotarod test; type: toxicity, organism-based; settings: in vivo
[11] = test system: Mus musculus; experiment: Anticonvulsant activity in Mus musculus (mouse) assessed as protection against maximal electroshock-induced seizure at 300 mg/kg, ip after 0.5 hr; type: functional, organism-based; design: dose 300 mg/kg
[12] = test system: Mus musculus; experiment: Anticonvulsant activity in ip dosed Mus musculus (mouse) assessed as protection against subcutaneous pentylene tetrazole-induced seizure after 0.5 hr; type: functional; settings: read-out: MED

Compound | Activity [1] | Activity [2] | Activity [3] | minimal effective dose [4] | Activity [5] | minimal effective dose [6] | minimal effective dose [7] | MTC [8] | Activity [9] | MTC [10] | Activity [11] | minimal effective dose [12]
CN(C)c1ccc(C2C(Cl)C(=O)N2NC(=O)c2ccncc2)cc1 (stereo not given) | Non-toxic | inactive | 49.83% | 100 mg/kg | Non-toxic | 100 mg/kg | 100 mg/kg |  |  |  |  | 
COc1cc(C2C(Cl)C(=O)N2NC(=O)c2ccncc2)ccc1O (stereo not given) | Non-toxic | inactive |  | 300 mg/kg | Non-toxic | 100 mg/kg | 300 mg/kg |  |  |  |  | 
O=C1NC(=O)C(c2ccccc2)(c2ccccc2)N1 [PHENYTOIN] |  | inactive |  | 30 mg/kg |  | 30 mg/kg |  | 100 mg/kg | inactive | 100 mg/kg |  | 
O=C(NN1C(=O)C(Cl)C1c1ccc(O)cc1)c1ccncc1 (stereo not given) | Non-toxic | inactive |  |  |  | 100 mg/kg | 300 mg/kg |  |  | 300 mg/kg | inactive | 
COc1ccccc1C1C(Cl)C(=O)N1NC(=O)c1ccncc1 (stereo not given) | Non-toxic | inactive |  |  | Non-toxic | 300 mg/kg |  |  | inactive |  | inactive | 
O=C(NN1C(=O)C(Cl)C1c1ccccc1Cl)c1ccncc1 (stereo not given) | Non-toxic | inactive |  |  | Non-toxic | 300 mg/kg |  |  | inactive |  | inactive | 
COc1ccc(C2C(Cl)C(=O)N2NC(=O)c2ccncc2)cc1OC (stereo not given) | Non-toxic |  | 33.83% | 100 mg/kg | Non-toxic | 100 mg/kg | 100 mg/kg |  |  |  |  | 100 mg/kg
O=C(NN1C(=O)C(Cl)C1c1ccccc1O)c1ccncc1 (stereo not given) | Non-toxic | inactive |  |  | Non-toxic | 300 mg/kg |  |  | inactive |  | inactive | 
O=C(NN1C(=O)C(Cl)C1c1ccc([N+](=O)[O-])cc1)c1ccncc1 (stereo not given) | Non-toxic |  |  |  |  | 100 mg/kg | 100 mg/kg |  |  | 300 mg/kg | inactive | 300 mg/kg
O=C(NN1C(=O)C(Cl)C1c1ccccc1[N+](=O)[O-])c1ccncc1 (stereo not given) | Non-toxic | inactive |  |  | Non-toxic | 300 mg/kg | 300 mg/kg |  |  |  | inactive | 
O=C(NN1C(=O)C(Cl)C1c1ccccc1)c1ccncc1 (stereo not given) | Non-toxic |  | 11.5% | 100 mg/kg | Non-toxic | 100 mg/kg | 100 mg/kg |  |  |  |  | 100 mg/kg
O=C(NN1C(=O)C(Cl)C1c1ccc(Cl)cc1)c1ccncc1 (stereo not given) | Non-toxic |  | 54.54% | 300 mg/kg | Non-toxic | 100 mg/kg | 100 mg/kg |  |  |  |  | 100 mg/kg
NC(=O)N1c2ccccc2C=Cc2ccccc21 [CARBAMAZEPINE] | Non-toxic |  | 30.66% | 30 mg/kg |  | 100 mg/kg | 300 mg/kg |  |  | 30 mg/kg |  | 100 mg/kg
Cc1ccc(C2C(Cl)C(=O)N2NC(=O)c2ccncc2)cc1 (stereo not given) | Non-toxic |  | 21.66% | 30 mg/kg | Non-toxic | 30 mg/kg | 30 mg/kg |  |  |  |  | 100 mg/kg
